How the values were obtained:
[1] = tested on: CA1 pyramidal neurons (Schaffer collateral-CA1 synapses)
[2] = tested on: T-type calcium channels; assay: whole-cell T-type; assay type: cell-based, Long-Evans rat; conditions: for T-type current inhibition, blockers: 1μM; for LV currents in neurons lacking all T-type channels: shCaV3.1-3.3, Figure S6F
[3] = tested on: calcium signaling in hippocampal neurons; assay: RCaMP calcium sensor imaging in hippocampal neurons; conditions: for baseline calcium in dendrites, VGCC blockers: all 1μM, sustained (1 min mean) ΔF/F of shaft ROIs, n=3–11 neurons, p<0.03 vs control imaging period; for inhibition of dendritic calcium in neurons lacking T-type channels: shCaV3.1-3.3, Figure S5E
[4] = tested on: LTP; conditions: ref Moriguchi et al., 20012; cited from earlier work
[5] = tested on: T-type channel; conditions: ref Yamamoto et al, 2013; cited from earlier work
[6] = tested on: T-type calcium channels; assay: T-type currents in acute hippocampal slices; set-up: species or system mouse; conditions: NNC added to slice; Figure S8E
[7] = tested on: hippocampal neurons; assay: cell health and dendritic spine integrity under blockers; assay type: cell-based, Long-Evans rat; conditions: hippocampal slice cultures; data not shown
[8] = tested on: RhoA; assay: RhoA2G FRET sensor imaging in hippocampal neurons; conditions: AP5 1μM + ADDLs; dendritic shaft; Figure S4E
[9] = tested on: hippocampal neurons; conditions: ref Wills et al., 2012; cited from earlier work
[10] = AP5 1μM + ADDLs, dendritic shaft, Figure S4E

Molecule: COCCOC(=O)C1=C(C)NC(C)=C(C(=O)OC(C)C)C1c1cccc([N+](=O)[O-])c1 (stereo not drawn) [nimodipine]
- LTP, L-type channel blocker ([1]; Nimodipine 1μM, 6 months mice, fEPSC 55–60 min): no effect on LTP

Molecule: CC1(C)C[C@@H](CN2CCC(F)(CNC(=O)c3cc(Cl)cc(Cl)c3)CC2)CCO1 [TTA-P2]
- T-type current inhibition, blockers [2]: ADDL’s inhibition of T-type currents was comparable to T-type channel blockers NNC and TTA-P2
- LV currents in neurons lacking all T-type channels [2]: neither NNC or TTAP2 inhibit LV currents in neurons lacking all T-type channels
- baseline calcium in dendrites, VGCC blockers [3]: elicited the largest reductions in baseline calcium in dendrites
- inhibition of dendritic calcium in neurons lacking T-type channels [3]: eliminates NNC and TTA-P2’s inhibition of calcium signaling in dendrites

Molecule: O=C1N=C2C=CC=CN2C12Cc1ccccc1C2 [STK101, spiro[imidazo-[1,2-a]pyridine-3,2-indan]-2(3H)-one]
- LTP [4]: enhances LTP
- T-type channel agonism [5]: T-type channel agonist

Molecule: CC(C)[C@H]1c2ccc(F)cc2CC[C@@]1(CCN(C)CCCc1nc2ccccc2[nH]1)OC(=O)C1CC1 [NNC]
- T-type current inhibition, blockers [2]: ADDL’s inhibition of T-type currents was comparable to T-type channel blockers NNC and TTA-P2
- LV currents in neurons lacking all T-type channels [2]: neither NNC or TTAP2 inhibit LV currents in neurons lacking all T-type channels
- LTP rescue under ADDLs by ROCK inhibition or NgR loss, effect of NNC ([1]; NNC 10μM + ADDL + Y27632 (10μM) or NgR^NNN, p<0.04): reverses the capacity of ROCK inhibition (Y27632) or NgR loss (NgR^NNN) to rescue neurons from ADDL-mediated LTP reduction
- LTP, NNC combined with ADDLs ([1]; NNC 10μM + ADDL, fEPSC 55–60 min, n=6–8 animals/slices per condition): no greater inhibition of LTP than either ADDL or NNC alone
- LTP, T-type channel blocker ([1]; NNC 10μM, 6 months mice, fEPSC 55–60 min, p<0.001 vs CON): inhibits LTP in acute hippocampal slices
- LV currents in acute hippocampal slice [6]: inhibits LV currents in our acute hippocampal slice recording
- effects on dendritic spines, NNC [7]: no pathological effects on dendritic spines in hippocampal slice cultures
- baseline calcium in dendrites, VGCC blockers [3]: elicited the largest reductions in baseline calcium in dendrites
- inhibition of dendritic calcium in neurons lacking T-type channels [3]: eliminates NNC and TTA-P2’s inhibition of calcium signaling in dendrites

Molecule: NC(CCCP(=O)(O)O)C(=O)O (stereo not drawn) [AP5]
- long-term RhoA activation by ADDLs under NMDAR inhibition [8]: long-term activation of RhoA and inhibition of calcium signaling is preserved
- acute calcium response to ADDLs under NMDAR inhibition [3, 10]: acute calcium responses to ADDLs in the dendritic shaft of neurons are lost
- long-term calcium inhibition by ADDLs under NMDAR inhibition [3, 10]: long-term activation of RhoA and inhibition of calcium signaling is preserved

Molecule: lysophosphatidic acid [LPA]
- T-type currents, RhoA activator ([2]; LPA 1μM vs ADDLs 150nM, 14–18 DIV): inhibits T-type currents with a magnitude comparable to that of ADDLs

Molecule: C[C@@H](N)[C@H]1CC[C@H](C(=O)Nc2ccncc2)CC1 [Y27632]
- reversal of ADDL block of T-type currents ([2]; Y27632 1μM + ADDLs): reverses ADDL’s block of T-type channel currents
- neuron health, Y27632 [9]: no deleterious effects on neuron health
- LTP, reversal of ADDL inhibition ([1]; Y27632 1μM preincubation + ADDLs 150 nM, fEPSC 55–60 min, p<0.05 vs ADDL): reverses ADDL’s inhibition of LTP
- LTP, ROCK inhibitor alone ([1]; Y27632 1μM, control neurons, no ADDLs, p<0.03 vs CON (WT)): blocks LTP
- ADDL inhibition of dendritic calcium under ROCK inhibition ([3]; Y27632 1μM, 10 minutes, then ADDLs 150nM, n=3 neurons): ADDL-mediated inhibition of dendritic calcium signaling in neurons is lost
- RCaMP activity in the dendritic shaft, ROCK inhibitor ([3]; Y27632 1μM, 1 min mean ΔF/F, shaft ROIs): marked rise in RCaMP activity in the dendritic shaft of neurons
- ADDL inhibition of dendritic calcium after washout of Y27632 ([3]; washout 10 minutes, then ADDLs 150nM, n=3 neurons, p<0.001 vs CON): following a washout of Y27632, ADDL’s inhibition of dendritic calcium signaling is restored

Reference: publication PMC6101033 (Neuron, 2017)
